# From patent US20210403435A1, “HERBICIDAL COMPOUNDS” (SYNGENTA CROP PROTECTION AG, priority 2018, published 2021)
# Tests used:
# Assay in all cases: Post-emergence efficacy, glasshouse, evaluated after 13 days
# Type in all cases: in vivo
# [1] = test system: Eleusine indica (ELEIN); settings: Eleusine indica, 312 h; post-emergence application, 500 g/Ha, evaluated after 13 days; read-out: Control of weed species ELEIN (100=total damage to plant; 0=no damage to plant)
# Procedure, shortened: (§1)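 Plants grown 14 days in glasshouse (24/16° C., 14 h light, 65% humidity), then sprayed post-emergence with compound formulated in IF50 and diluted in 0.25% or 1% Empicol ESC70 + 1% ammonium sulphate. Damage scored after 13 days (0 none to 100 total).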
# [2] = test system: Euphorbia heterophylla (EPHHL); settings: Euphorbia heterophylla, 312 h; post-emergence application, 500 g/Ha, evaluated after 13 days; read-out: Control of weed species EPHHL (100=total damage to plant; 0=no damage to plant)
# Procedure, shortened: as §1
# [3] = test system: Lolium perenne (LOLPE); settings: Lolium perenne, 312 h; post-emergence application, 500 g/Ha, evaluated after 13 days; read-out: Control of weed species LOLPE (100=total damage to plant; 0=no damage to plant)
# Procedure, shortened: as §1
# [4] = test system: Ipomoea hederacea (IPOHE); settings: Ipomoea hederacea, 312 h; post-emergence application, 500 g/Ha, evaluated after 13 days; read-out: Control of weed species IPOHE (100=total damage to plant; 0=no damage to plant)
# Procedure, shortened: as §1
# [5] = test system: Amaranthus palmeri (AMAPA); settings: Amaranthus palmeri, 312 h; post-emergence application, 500 g/Ha, evaluated after 13 days; read-out: Control of weed species AMAPA (100=total damage to plant; 0=no damage to plant)
# Procedure, shortened: as §1
# [6] = test system: Chenopodium album (CHEAL); settings: Chenopodium album, 312 h; post-emergence application, 500 g/Ha, evaluated after 13 days; read-out: Control of weed species CHEAL (100=total damage to plant; 0=no damage to plant)
# Procedure, shortened: as §1
# [7] = test system: Digitaria sanguinalis (DIGSA); settings: Digitaria sanguinalis, 312 h; post-emergence application, 500 g/Ha, evaluated after 13 days; read-out: Control of weed species DIGSA (100=total damage to plant; 0=no damage to plant)
# Procedure, shortened: as §1
# [8] = test system: Setaria faberi (SETFA); settings: Setaria faberi, 312 h; post-emergence application, 500 g/Ha, evaluated after 13 days; read-out: Control of weed species SETFA (100=total damage to plant; 0=no damage to plant)
# Procedure, shortened: as §1
# [9] = test system: Echinochloa crus-galli (ECHCG); settings: Echinochloa crus-galli, 312 h; post-emergence application, 500 g/Ha, evaluated after 13 days; read-out: Control of weed species ECHCG (100=total damage to plant; 0=no damage to plant)
# Procedure, shortened: as §1
SMILES,pest or weed control at 500 g/ha [1] [%],pest or weed control at 500 g/ha [2] [%],pest or weed control at 500 g/ha [3] [%],pest or weed control at 500 g/ha [4] [%],pest or weed control at 500 g/ha [5] [%],pest or weed control at 500 g/ha [6] [%],pest or weed control at 500 g/ha [7] [%],pest or weed control at 500 g/ha [8] [%],pest or weed control at 500 g/ha [9] [%]
Cn1cnc(CNC(=O)c2cc[n+](CCC(=O)O)nc2)n1 [Compound A147],90,80,90,40,100,90,100,80,90
CC(CS(C)(=O)=O)NC(=O)c1cc[n+](CCC(=O)O)nc1 (stereo not drawn) [Compound A122],70,70,60,60,100,90,100,60,90
O=C(O)CC[n+]1ccc(C(=O)Nc2cnccn2)cn1 [Compound A124],30,30,10,20,20,30,70,70,60
CCNC(=O)c1cc[n+](C(C)(C)CC(=O)O)nc1 [Compound A71],30,20,30,60,100,70,60,30,30
CN(CC#N)C(=O)c1cc[n+](CCC(=O)O)nc1 [Compound A107],20,100,0,20,100,20,40,60,60
O=C(O)CC[n+]1ccc(C(=O)Nc2ccccc2)cn1 [Compound A33],90,50,70,30,100,80,60,60,60
CCNC(=O)c1cc[n+](CCNS(=O)(=O)C(F)(F)F)nc1 [Compound A73],90,90,60,80,100,90,90,60,80
COCCNC(=O)c1cc[n+](CCCOS(=O)(=O)[O-])nc1 [Compound A138],60,60,60,60,30,70,70,80,30
CCNC(=O)c1cc[n+](CC(C)(C)C(=O)O)nc1 [Compound A88],100,90,60,90,100,100,80,100,90
CCCNC(=O)c1cc[n+](CCS(=O)(=O)[O-])nc1 [Compound A51],20,60,20,60,50,70,90,60,60
C#CCNC(=O)c1cc[n+](CCC(=O)O)nc1 [Compound A17],100,90,70,100,100,100,100,90,90
C=CCNC(=O)c1cc[n+](CCNS(=O)(=O)[O-])nc1 [Compound A140],100,90,20,60,100,100,90,90,70
O=C(O)CC[n+]1ccc(C(=O)N2CCOCC2)cn1 [Compound A29],90,100,50,50,100,90,90,90,90
O=C(O)CC[n+]1ccc(C(=O)NCc2ccccn2)cn1 [Compound A115],100,70,70,20,100,70,70,70,70
O=C(O)CC[n+]1ccc(C(=O)N2CC[S+]([O-])CC2)cn1 [Compound A109],90,90,30,60,100,90,80,90,70
O=C(O)CC[n+]1ccc(C(=O)N2CCSCC2)cn1 [Compound A112],70,90,30,50,100,90,100,90,40
O=C(O)CC[n+]1ccc(C(=O)NCCc2nccs2)cn1 [Compound A143],100,50,50,40,100,90,60,80,40
CC(C)(C)NC(=O)c1cc[n+](CCC(=O)O)nc1 [Compound A15],100,90,70,30,100,100,90,100,90
CS(=O)(=O)CCNC(=O)c1cc[n+](CCC(=O)O)nc1 [Compound A104],100,100,70,80,100,100,100,100,70
CC(C)(C)NC(=O)c1cc[n+](CCS(=O)(=O)O)nc1 [Compound A13],70,70,60,60,100,100,80,80,60
